# Assay results reported in US10772886B2, “CXCR-2 inhibitors for treating crystal arthropathy disorders” (ARDEA BIOSCIENCES, INC., priority 2016, dated 2020).
# Tests used:
# CXCR-2 = target: T1, CXCR-2 (Homo sapiens, UniProt P25025); details: cited from earlier work
# T1 sequence (P25025 1-360): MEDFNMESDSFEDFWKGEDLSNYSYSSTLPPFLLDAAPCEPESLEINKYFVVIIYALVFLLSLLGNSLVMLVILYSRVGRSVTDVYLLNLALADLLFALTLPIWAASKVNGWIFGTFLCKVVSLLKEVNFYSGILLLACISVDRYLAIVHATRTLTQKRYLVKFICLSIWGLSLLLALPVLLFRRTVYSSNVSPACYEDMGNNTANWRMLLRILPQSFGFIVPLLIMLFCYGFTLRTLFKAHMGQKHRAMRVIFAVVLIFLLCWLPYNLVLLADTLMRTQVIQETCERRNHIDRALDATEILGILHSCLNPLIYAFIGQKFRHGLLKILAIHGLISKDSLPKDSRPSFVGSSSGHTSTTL
# [1] = tested on: rat air pouch model of crystal-induced arthropathy (MSU); assay: Rat air pouch model, Example 5 (Compound 2 in combination with colchicine); assay type: in vivo
# Protocol: Sodium hydroxide (40 g, Fisher Scientific) was dissolved in de-ionized water (100 mL, dH2O) to provide a 10N solution. Uric acid (16 g, Sigma) was added to de-ionized water (3400 mL) containing sodium hydroxide solution (11.8 mL, 10N) and heated to 60° C. with constant stirring. […] The resulting clear solution was cooled to 4-8° C., resulting in the formation of crystals, which were isolated by filtration, washed three times with de-ionized wa[…]) and dried at 37° C. The dried mono sodium urate crystals were sifted into an air-tight container for storage. […] Methylcellulose (0.4 g, Sigma) was dissolved in de-ionized water (100 mL) to provide a 0.4% solution used as vehicle. […] Test compounds were suspended in vehicle to provide the desired concentrations, and diluted accordingly. […] Male Sprague-Dawley rats (Charles River Laboratories, 160-180 g) were received, individually examined and housed in cages of five rats each. The animals were in apparent good health with no clinical signs of disease or distress. The rats were placed in quarantine with daily inspections, ear notched for identification purposes and shaved at the nape of the neck. The rats were anesthetized (isoflurane), and the nape of the neck was cleansed with 70% isopropanol (Butler Animal Health Supply) followed by povidone-iodine solution (Ricca Chemical Co.). Sterile air (30 mL, 0.2 μm, Millipore) was injected subcutaneously using a 23 G×11⁄2 inch needle fixed to a 30 mL syringe. The rats were returned to routine housing with no adverse reactions observed. The rats were anesthetized (isoflurane), and the nape of the neck was cleansed with 70% isopropanol (Butler Animal Health Supply) followed by povidone-iodine solution (Ricca Chemical Co.). Sterile air (15 mL, 0.11 μm, Millipore) was injected subcutaneously using a 23 G×11⁄2 inch needle fixed to a 20 mL syringe. The rats were returned to routine housing with no adverse reactions observed. The rats were weighed and sorted into treatment groups based on average body weight. As appropriate, the rats were dosed orally with test compound or vehicle (saline alone). […] Thirty minutes after SC injection or two hours after PO dosing, MSU (15 mL) was injected into the air pouch using an 18 G×2 inch needle fitted to a 20 mL syringe. Control group was injected with 15 mL sterile saline (vehicle). The injection sites were closed (collodion, Macron) and the rats returned to their cages with no adverse effects observed. Four hours after MSU/saline injection, the rats were anesthetized and heparinized saline (5 mL, 10 U/mL) was injected into the air pouch. […] An aliquot of the exudate was transferred to green Eppendorf tubes for total white blood cell (WBC) measurement. After allowing the MSU crystals to settle out for ten minutes, an aliquot of the exudate was transferred to heparinized microtainer tubes (Becton Dickinson) for differential white blood cell counts. The remainder of the exudate was centrifuged and an aliquot of the supernatants was dispensed to labeled clear Eppendorf tubes and stored at -80° C. The rats were exsanguinated into pre-chilled serum separator tubes, processed to serum, and 0.5 mL aliquot was stored at -80° C. in labeled Eppendorf tubes. […] 90 rats were used, divided into 9 groups of 10 animals, as follows: [table]
# [2] = 0.3 umol/kg PO + Colchicine 0.001 mpk SC, Group 6
# [3] = 0.3 umol/kg PO + Colchicine 0.1 mpk SC, Group 8
# [4] = 3.0 umol/kg PO + Colchicine 0.001 mpk SC, Group 7
# [5] = 3.0 umol/kg PO + Colchicine 0.1 mpk SC, Group 9
compound,measurement,setting,value
"C[C@@H](Oc1cc(NS(=O)(=O)N2CCC2)nc(SCc2cccc(F)c2F)n1)[C@@H](O)CO [Compound 3, N-(2-((2,3-difluorobenzyl)thio)-6-(((2R,3S)-3,4-dihydroxybutan-2-yl)oxy)pyrimidin-4-yl)azetidine-1-sulfonamide]",inhibit CXCR-2,CXCR-2,shown to inhibit CXCR-2
"COc1cc2c(c(OC)c1OC)-c1ccc(OC)c(=O)cc1[C@@H](NC(C)=O)CC2 [Colchicine, COLCHICINE, reference compound]",Avg Exudate Vol,"[1]; 0.1 mpk (PO), Group 3",9.7 mL
same,Avg Total WBC,"[1]; 0.1 mpk (PO), Group 3",221 ×10^6
same,Neutrophils,"[1]; 0.1 mpk (PO), Group 3",163 ×10^6
"CC[C@@H](Nc1c(Nc2cccc(C(=O)N(C)C)c2O)c(=O)c1=O)c1ccc(C)o1 [Compound 2, (R)-2-hydroxy-N,N-dimethyl-3-((2-((1-(5-methylfuran-2-yl)propyl)amino)-3,4-dioxocyclobut-1-en-1-yl)amino)benzamide]",inhibit CXCR-2,CXCR-2,shown to inhibit CXCR-2
same,Avg Exudate Vol,[1]; [2],9.6 mL
same,Avg Total WBC,[1]; [2],337 ×10^6
same,Neutrophils,[1]; [2],246 ×10^6
same,Avg Exudate Vol,[1]; [3],7.9 mL
same,Avg Total WBC,[1]; [3],153 ×10^6
same,Neutrophils,[1]; [3],123 ×10^6
same,Avg Exudate Vol,"[1]; 0.3 umol/kg PO, Group 4",9.8 mL
same,Avg Total WBC,"[1]; 0.3 umol/kg PO, Group 4",365 ×10^6
same,Neutrophils,"[1]; 0.3 umol/kg PO, Group 4",268 ×10^6
same,Avg Exudate Vol,[1]; [4],8 mL
same,Avg Total WBC,[1]; [4],88 ×10^6
same,Neutrophils,[1]; [4],26.7 ×10^6
same,Avg Exudate Vol,[1]; [5],7.5 mL
same,Avg Total WBC,[1]; [5],76.8 ×10^6
same,Neutrophils,[1]; [5],27.2 ×10^6
same,Avg Exudate Vol,"[1]; 3.0 umol/kg PO, Group 5",7.0 mL
same,Avg Total WBC,"[1]; 3.0 umol/kg PO, Group 5",78.6 ×10^6
same,Neutrophils,"[1]; 3.0 umol/kg PO, Group 5",16 ×10^6
"CC1CN(S(=O)(=O)Nc2cc(O[C@H](C)[C@@H](O)CO)nc(SCc3ccc(F)cc3)n2)C1 [Compound 4, N-(6-(((2R,3S)-3,4-dihydroxybutan-2-yl)oxy)-2-((4-fluorobenzyl)thio)pyrimidin-4-yl)-3-methylazetidine-1-sulfonamide]",inhibit CXCR-2,CXCR-2,shown to inhibit CXCR-2
